Each structure is given as a SMILES string.

Experimental findings from publication PMC12732972, “Bifunctional BODIPY-Clioquinol Copper Chelator with Multiple Anti-AD Properties” (International Journal of Molecular Sciences, 2025) are described below.

The target in this assay is T1, beta amyloid (Aβ42) (Homo sapiens, UniProt P05067).
T1 construct: gene APP; synthetic peptide of 42 amino acids β-amyloid Aβ42 (monomers)
The assay can be described thus: ITC with Aβ[…] monomers (supported by fluorescence saturation binding with monomers and fibrils).

T1 sequence (P05067 672-713 limits assumed): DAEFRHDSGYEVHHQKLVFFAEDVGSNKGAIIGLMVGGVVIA

For orientation: Kd means the constant that tells how readily two partners part at equilibrium. Read a high Kd as lower affinity. `CC1=C(c2nc3ccccc3s2)C(C)=[N+]2C1=C(c1ccc(OCC(=O)NCCCOc3c(I)cc(Cl)c4cccnc34)cc1)c1c(C)cc(C)n1[B-]2(F)F` [BDP-CLQ, 2-(4-(2-(benzo[d]thiazol-2-yl)-5,5-difluoro-1,3,7,9-tetramethyl-5H-5λ^4,6λ^4-dipyrrolo [1,2-c:2′,1′-f][1,3,2]diazaborinin-10-yl)phenoxy)-N-(3-((5-chloro-7-iodoquinolin-8-yl)-oxy)propyl)acetamide] gave a Kd of 4.08 ± 0.2 µM.
